Source: ChEMBL document CHEMBL5728427, “Apoptosis signal-regulating kinase 1 inhibitors and methods of use thereof” (2021)
pIC50: −log10 of the molar value.

Target: T1, Mitogen-activated protein kinase kinase kinase 5 (Homo sapiens, UniProt Q99683)
T1 sequence (Q99683 whole entry): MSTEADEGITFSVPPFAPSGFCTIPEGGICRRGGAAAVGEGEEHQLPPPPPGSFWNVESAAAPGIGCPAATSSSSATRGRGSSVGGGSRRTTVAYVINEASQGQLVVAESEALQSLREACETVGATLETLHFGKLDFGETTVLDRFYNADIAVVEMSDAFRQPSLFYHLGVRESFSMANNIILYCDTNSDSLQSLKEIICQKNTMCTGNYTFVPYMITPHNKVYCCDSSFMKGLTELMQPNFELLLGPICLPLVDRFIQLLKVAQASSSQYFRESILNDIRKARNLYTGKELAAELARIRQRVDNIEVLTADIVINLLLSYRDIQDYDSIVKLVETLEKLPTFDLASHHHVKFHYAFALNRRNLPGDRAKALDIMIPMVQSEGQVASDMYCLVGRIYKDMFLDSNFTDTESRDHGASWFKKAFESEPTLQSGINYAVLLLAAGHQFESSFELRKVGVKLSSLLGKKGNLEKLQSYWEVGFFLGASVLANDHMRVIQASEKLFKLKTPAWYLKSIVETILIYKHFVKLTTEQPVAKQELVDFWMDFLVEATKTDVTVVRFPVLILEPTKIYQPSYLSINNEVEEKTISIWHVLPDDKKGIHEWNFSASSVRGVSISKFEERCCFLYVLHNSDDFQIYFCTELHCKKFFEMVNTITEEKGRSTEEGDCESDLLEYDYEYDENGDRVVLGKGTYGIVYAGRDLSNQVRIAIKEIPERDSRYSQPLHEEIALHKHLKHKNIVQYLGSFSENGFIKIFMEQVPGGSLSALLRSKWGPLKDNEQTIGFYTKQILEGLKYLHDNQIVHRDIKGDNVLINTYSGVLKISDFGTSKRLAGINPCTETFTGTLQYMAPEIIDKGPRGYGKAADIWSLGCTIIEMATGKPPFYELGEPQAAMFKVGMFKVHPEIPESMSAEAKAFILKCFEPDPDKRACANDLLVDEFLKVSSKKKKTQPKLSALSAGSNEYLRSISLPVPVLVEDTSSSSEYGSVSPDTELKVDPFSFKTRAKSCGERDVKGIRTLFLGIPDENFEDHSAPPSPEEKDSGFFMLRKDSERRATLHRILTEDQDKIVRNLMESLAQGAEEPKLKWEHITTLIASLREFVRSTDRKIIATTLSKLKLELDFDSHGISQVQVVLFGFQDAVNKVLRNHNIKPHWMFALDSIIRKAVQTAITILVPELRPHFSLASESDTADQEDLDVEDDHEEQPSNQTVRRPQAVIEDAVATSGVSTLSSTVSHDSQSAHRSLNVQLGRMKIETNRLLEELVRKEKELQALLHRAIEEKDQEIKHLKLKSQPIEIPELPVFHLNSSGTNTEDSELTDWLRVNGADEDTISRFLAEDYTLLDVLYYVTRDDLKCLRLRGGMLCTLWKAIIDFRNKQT
Experiment: HTRF KinEASE Assay: ASK1 was purchased from Thermofisher (Catalogue #PV4011), ATP was purchased from Sigma (Catalogue #A7699), HTRF® KinEASE™ Assay System was obtained from Cisbio (Bedford, Mass.). ½ Area plate was purchased from Perkin Elmer (Catalogue ##6005560). HTRF® KinEASE™-STK is a generic method for measuring serine/threonine kinase activities using a time-resolved fluorescence resonance energy transfer (TR-FRET) immunoassay. The IC50 value for each compound was determined in the presence of compound (various concentration from 0 to 10 μM) and a fixed amount of ATP and peptide substrates. The test compound, 1 uM STK3 peptide substrate, and 5 nM of ASK1 kinase are incubated with kinase reaction buffer containing 50 mM HEPES pH 7.5, 0.01% BRIJ-35, 10 mM MgCl2, and 1 mM EGTA for 30 minutes. 100 uM ATP is added to start kinase reaction and incubated for 3 hours. The STK3-antibody labeled with Eu3+-Cryptate and 125 nM streptavidin-XL665 are mixed in a single addition with stop reagents provided by the Cisbio kit used to stop the kinase reaction. Fluorescence is detected using an Envision Multilabeled 2014 reader from PerkinElmer. The Fluorescence is measured at 615 nm (Cryptate) and 665 nm (XL665) and a ratio of 665 nm/615 nm is calculated for each well. The resulting TR-FRET is proportional to the phosphorylation level. Staurosporine was used as the positive control.

Structure (SMILES): Cc1cc(F)c(C(=O)Nc2cccc(-n3cnnc3)n2)cc1-n1cnc(C2CC2)c1
- pIC50: < 6.00
